Patent US20250019335A1, “NOVEL QUINIZARIN DERIVATIVE AND PREPARATION METHOD THEREOF” (BENOBIO CO., LTD., priority 2021, published 2025)

Experiments:
[1] = molecular target: T1, BRD2(BD2) (Homo sapiens, UniProt P25440); assay: Binding inhibition ability test for BRD2 protein (AlphaScreen, GST BRD2 / biotinylated acetyl histone H4 peptide); details: 100 nM GST BRD2, 100 nM biotinylated acetyl histone H4 (Lys5, 8, 12, 16) peptide, Alpha Screen
T1 construct: a mixture of 100 nM GST BRD2 (BD1, BD2, BD1+BD2) and 100 nM biotinylated acetyl histone H4
Experimental: To confirm a binding inhibitory effect of a quinizarin derivative of the present disclosure on a BRD2 protein among BET proteins, the following experiment was performed.
First, a compound was diluted in 1:5 subdilution in an assay buffer from a 10 mM stock in dimethyl sulfoxide (DMSO) in a white Optiplate.
Then, a mixture of 100 nM GST BRD2 (BD1, BD2, BD1+BD2) and 100 nM biotinylated acetyl histone H4 (Lys5, 8, 12, 16) peptides was added to the diluent, and then each sample was shaking-cultured in the dark at 300 rpm for 30 minutes at room temperature.
Thereafter, signals were measured with a PerkinElmer Envision HTS Multilabel Reader using a PerkinElmer Alpha Screen protocol.

[2] = tested on: SREBP-1; assay: Expression of liposynthesis factor SREBP-1 in palmitic acid-treated HepG2 cells (RT-PCR); assay type: cell-based, human; details: pretreated 1 μM to 10 μM, 100 μM palmitic acid 24 hours
Experimental: (§1) HepG2 cell lines, human liver epithelial cells, were incubated, pretreated with quinizarin and a substance of Example 2 (BBC0504) at concentrations of 1 μM to 10 μM, and treated with 100 μM palmitic acid (PA) for 24 hours to induce fatty liver at a cellular level. After 24 hours, the expression of lipogenesis-related genes SREBP-1 and FAS in cells in each sample was confirmed using RT-PCR. Each sample was added with a trizol reagent to extract total RNA, and the concentration was confirmed using a spectrophotometer. To synthesize cDNA for each gene, RT-PCR reaction was performed using primers targeting the SREBP-1 and FAS genes. β-actin was used as a control group, and after the reaction was completed, the detected cDNA product was confirmed by electrophoresis on a 1.0% agarose gel.
FIG. 13 illustrates a result of confirming SREBP-1 expression after treating fatty liver-induced cells for each concentration with a quinizarin derivative according to an embodiment of the present disclosure.

[3] = tested on: FAS; assay: Expression of liposynthesis factor FAS in palmitic acid-treated HepG2 cells (RT-PCR); assay type: cell-based, human; details: pretreated 1 μM to 10 μM, 100 μM palmitic acid 24 hours
Experimental: as §1
FIG. 14 illustrates a result of confirming FAS expression after treating fatty liver-induced cells with a quinizarin derivative at each concentration according to an embodiment of the present disclosure.

[4] = tested on: HepG2 cells; assay: Lipogenesis inhibition in palmitic acid-induced fatty liver HepG2 cells (Oil red O staining); assay type: cell-based, human; details: pretreated 1 μM to 10 μM, 100 μM palmitic acid 24 hours
Experimental: HepG2 cell lines, human liver epithelial cells, were incubated, pretreated with quinizarin and a substance of Example 2 (BBC0504) at concentrations of 1 μM to 10 μM, and treated with 100 μM palmitic acid (PA) for 24 hours to induce fatty liver at a cellular level. After 24 hours, the cells in each sample were immobilized for 1 hour with a phosphate-buffered salt solution containing 7% formaldehyde, washed with PBS, and stained with a 99% isopropanol solution containing 1% Oil red O for 10 minutes. The differentiation degree of adipocytes was measured by dissolving the stained Oil red O in isopropanol and measuring the absorbance at 510 nm.
Referring to FIG. 11, HepG2 cells, which are human liver epithelial cells, were treated with palmitic acid to induce fatty liver, and the ability to inhibit lipogenesis was confirmed at each concentration in Example 2.

T1 sequence (P25440 344-453 limits assumed, species assumed): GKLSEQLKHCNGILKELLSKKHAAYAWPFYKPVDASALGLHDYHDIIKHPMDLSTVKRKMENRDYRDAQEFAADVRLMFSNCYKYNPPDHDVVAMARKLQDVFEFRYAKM

| SMILES | IC50 [1] | SREBP-1 gene expression [2] | FAS gene expression [3] | lipogenesis amount (Oil red O absorbance at 510 nm) [4] |
| --- | --- | --- | --- | --- |
| O=C1c2ccccc2C(=O)c2c(O)c(-c3ccc(O)c(O)c3)cc(O)c21 [Example 1] | 1.74 µM | – | – | – |
| O=C1c2ccc(-c3ccc(O)c(O)c3)cc2C(=O)c2c(O)ccc(O)c21 [Example 2] | 4.44 µM | reduced depending on a concentration | reduced depending on a concentration | reduced in a concentration-dependent manner |
| O=C1c2ccccc2C(=O)c2c(OC3COC3)ccc(O)c21 [Example 4] | 3.12 µM | – | – | – |

Further compounds by falling IC50 [1], results first:

| IC50 [1] | SMILES | SREBP-1 gene expression [2] | FAS gene expression [3] | lipogenesis amount (Oil red O absorbance at 510 nm) [4] |
| --- | --- | --- | --- | --- |
| 2.73 µM | O=C1c2ccccc2C(=O)c2c3c(cc(O)c21)OCCO3 [Example 5] | – | – | – |
| 1.75 µM | O=C1c2ccccc2C(=O)c2c(O)cc(-c3ccc(O)c(O)c3)cc21 [Example 3] | – | – | – |
